Test results as given in PubChem BioAssay (NCI).
“And” between values parts separate entries of the source, which are not always exact repeats. Equal entries are not always repeated.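 Grown in 96-well plates, cells were treated for 48 hours with each compound at five concentrations. Insufficient inhibition: endpoint recorded as highest concentration tested. Abbreviation: GI50, concentration required for 50% inhibition of growth. TGI: total growth inhibition.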

Key:
Assay in all cases: inhibition of tumour cell growth, NCI panel, 48 h
NCI-H23 lung = system: NCI-H23 lung
DU-145 prostate = system: DU-145 prostate
NCI-H226 lung = system: NCI-H226 lung
CAKI-1 renal = system: CAKI-1 renal
UACC-257 melanoma = system: UACC-257 melanoma
SNB-75 CNS = system: SNB-75 CNS
OVCAR-8 ovarian = system: OVCAR-8 ovarian
SF-295 CNS = system: SF-295 CNS
HCT-15 colon = system: HCT-15 colon
BT-549 breast = system: BT-549 breast

Compound | GI50 (NCI-H23 lung) | TGI (NCI-H23 lung) | TGI (DU-145 prostate) | TGI (NCI-H226 lung) | GI50 (CAKI-1 renal) | TGI (CAKI-1 renal) | TGI (UACC-257 melanoma) | GI50 (SNB-75 CNS) | GI50 (OVCAR-8 ovarian) | TGI (OVCAR-8 ovarian) | GI50 (SF-295 CNS) | TGI (SF-295 CNS) | GI50 (HCT-15 colon) | TGI (SNB-75 CNS) | TGI (HCT-15 colon) | GI50 (DU-145 prostate) | GI50 (NCI-H226 lung) | GI50 (UACC-257 melanoma) | GI50 (BT-549 breast) | TGI (BT-549 breast)
COc1cc2c(cc1O)CCN[C@@]21CS[C@H]2c3c(OC(C)=O)c(C)c4c(c3C(COC1=O)N1C2C2NC(Cc3cc(C)c(OC)c(O)c32)[C@@H]1O)OCO4 (stereo partly specified) | 4.5 ng/mL | 298 nM and 1.3e-07 µg/mL and 0.0045 µg/mL | 11 µM | 0.000273 ng/mL | 0.000294 ng/mL | 3.03 µM | 14.7 nM and 2.1e-07 µg/mL | 4.5 ng/mL | 4.5 ng/mL | < 10 nM and 0.472 µg/mL | 4.5 ng/mL | 1.09 µM and 5.17 µg/mL | 0.00461 ng/mL and 4.5 ng/mL |  |  |  |  |  |  | 
NN=C1/C(=C\c2ccccc2)CCC/C1=C/c1ccccc1 |  | > 100 µM |  |  |  |  | > 100 µM |  |  | > 100 µM |  | > 100 µM |  | > 100 µM | > 100 µM |  |  |  |  | 
COc1ccc(/C=C\c2cc(OC)c(OC)c(OC)c2)cc1NC(=O)/C=C/c1cc(OC)c(OC)c(OC)c1 | 6.96 µM | > 100 µM | > 100 µM | > 100 µM | 2.94 µM | > 100 µM | > 100 µM |  | 5.14 µM | > 100 µM |  |  | 5.14 µM |  | > 100 µM | 5.01 µM | 4.15 µM | 30.8 µM | 7.96 µM | 77.4 µM
Nc1nc(SCC#CCCl)c2[nH]cnc2n1 | 4.46 µM | 20.1 µM | 15.9 µM | 26.7 µM | 2.83 µM | 10.6 µM | 22.5 µM | 4.23 µM | 11.6 µM | 33.1 µM | 3.65 µM | 17.1 µM | 3.52 µM | 17.5 µM | 17.7 µM | 4.39 µM | 8.02 µM | 7.12 µM |  | 
COc1ccc(N2C(=O)[C@@H]3[C@@H]4CC(C)CC[C@@H]4c4c([nH]c5ccccc45)[C@@H]3C2=O)cc1 (stereo partly specified) |  | > 47.5 µM |  | 28.5 µM |  | > 72.9 µM | > 100 µM |  |  | 40.1 µM |  | 45 µM |  | 12.4 µM | > 50.2 µM |  |  |  |  | 
COc1cccc(NC(=O)/C(CS(=O)(=O)CCC(C(C)=O)C(C)=O)=N\NC(C)(C)C)c1 |  | > 100 µM |  | > 100 µM |  | > 100 µM | > 100 µM |  |  | > 100 µM |  |  |  | > 100 µM | > 100 µM |  |  |  |  | 
C=C(C)[C@@H]1CC[C@]2(C(=O)O)CC[C@]3(C)[C@H](CC[C@@H]4[C@@]5(C)CCC(N)C(C)(C)[C@@H]5CC[C@]43C)[C@@H]12 (stereo partly specified) |  |  | > 100 µM |  |  |  |  | 1.39 µM |  |  |  |  |  | 2.72 µM |  | 3.07 µM |  |  |  | 
COC1=CC(=O)C2(C=C1OC)OC[C@H]1Oc3c(ccc4c3C=CC(C)(C)O4)C(=O)[C@H]12 (stereo partly specified) |  | 95.3 µM |  |  |  |  | > 100 µM |  |  | > 100 µM |  |  |  | > 100 µM |  |  |  |  |  | 
O=[N+]([O-])c1ccc(N=P(c2ccccc2)(c2ccccc2)c2ccccc2)n2nnnc12 |  | > 100 µM |  |  |  | > 100 µM | > 100 µM |  |  | > 100 µM |  | 90.2 µM |  | 42.6 µM | > 100 µM |  |  |  |  | 
COC(=O)CC(=O)OC1C[C@@H]2CCC3C(C)(C)CCC[C@]3(C)C23CC[C@@]1(C)C3 (stereo partly specified) |  | 33.5 µM |  | 46.7 µM |  | 30.5 µM | 35.3 µM |  |  | 36.8 µM |  | 34.5 µM |  | 51.2 µM | 36.1 µM |  |  |  |  | 
CC1=Nc2ccccc2S/C1=C1/C=NC(=NC#N)N=C1C(=O)Nc1cccc(Cl)c1 |  | > 100 µM |  | > 100 µM |  | > 100 µM | > 100 µM |  |  | > 100 µM |  | > 100 µM |  | > 100 µM | > 100 µM |  |  |  |  | 
CC(=O)OC1(C(C)=O)CC2(c3ccccc3)OC1(c1ccccc1)c1ccccc12 (stereo unspecified) |  | > 100 µM |  | 43.2 µM |  |  | 25.1 µM |  |  | > 100 µM |  | > 100 µM |  | > 100 µM | > 100 µM |  |  |  |  | 
CC(=O)[CH-]C(=O)c1ccccc1.CC(=O)[CH-]C(=O)c1ccccc1.Cl.[O-]CCc1ccccn1.[O-]CCc1ccccn1.[Ti+4] | 24.7 µM | 53.8 µM |  | 78.3 µM | 44.1 µM | > 100 µM | > 100 µM | 23.9 µM | 30.1 µM | > 100 µM | 25.6 µM | > 100 µM | 46.2 µM | 89.2 µM | > 100 µM |  | 18.7 µM | 28.3 µM |  | 
CN1C/C(=C\c2ccccc2)C2=NN(C(N)=S)[C@H](c3ccccc3)[C@@H]2C1 |  | > 100 µM |  | > 100 µM |  |  | > 100 µM |  |  |  |  | > 100 µM |  |  | > 100 µM |  |  |  |  | 
CSCSCC(CO)NC(=O)/C=C/c1c(C)[nH]c(=O)[nH]c1=O (stereo unspecified) |  | > 100 µM |  | > 100 µM |  | > 100 µM | > 100 µM |  |  | > 100 µM |  | > 100 µM |  | > 100 µM | > 100 µM |  |  |  |  | 
O=C(CC1(O)C(=O)Nc2ccccc21)c1cccc(O)c1 (stereo unspecified) |  | > 100 µM |  | > 100 µM |  | > 100 µM | > 100 µM |  |  | > 100 µM |  | > 100 µM |  | > 100 µM | > 100 µM |  |  |  |  | 
O=C1N(c2ccc(Cl)cc2)C(=O)C2(SC=NN2Cc2ccccc2)N1c1ccc(Cl)cc1 (stereo unspecified) |  | > 100 µM |  | > 100 µM |  |  | > 100 µM |  |  | > 100 µM |  |  |  | > 100 µM |  |  |  |  |  | 
C=C1C(C)C2C(Cc3ccccc3)NC(=O)C23C(OC(C)=O)C=CC(C)(O)C(=O)C(C)C/C=C/C3C1O (stereo unspecified) | 15.6 µM | 82.2 µM and 259 µM | > 500 µM | 51.4 µM and > 500 µM | 0.05 µM | 1.12 µM and 1.66 µM | 45.4 µM and 335 µM | 0.0218 µM and 0.05 µM | > 471 µM | > 500 µM | 0.418 µM | 30.5 µM and 62.3 µM | > 500 µM |  | > 500 µM | 19.1 µM |  | 26.3 µM |  | 
CCCC(O)c1ccc2[nH]c3c(C)cc([N+](=O)[O-])c(C)c3c2c1 (stereo unspecified) |  | > 100 µM |  | > 100 µM |  | > 100 µM | > 100 µM |  |  | > 100 µM |  | > 100 µM |  | > 100 µM | > 100 µM |  |  |  |  | 
NP1(Oc2ccc(F)cc2)=NP(N)(Oc2ccc(F)cc2)=NP(Oc2ccc(F)cc2)(Oc2ccc(F)cc2)=N1 (stereo unspecified) |  | 23.9 µM | 20.1 µM |  |  | 21.8 µM | 24.7 µM |  |  | 14.9 µM |  | 15.4 µM |  | 14.5 µM | 14.6 µM |  |  |  |  | 7.44 µM
